Measurements reported in patent US20100004277A1, “COMPOUNDS AND METHODS FOR MODULATING PROTEIN TRAFFICKING” (FoldRx Pharmaceuticals, Inc., priority 2006, published 2010).
Residues, ends and D or L forms follow the SMILES beside them. *: point of attachment. Cbz = O=C(OCc1ccccc1)*

The compounds below were run on ypt1^ts cells (assay: ypt1^ts mutant growth rescue assay (OD600)). Settings: 5.0 μM, 37° C., 40 hours.
Assay type: cell-based, yeast
From the text: The yeast mutant cell line ypt1^ts suppresses, in a temperature dependent fashion, the dominant-lethal phenotype of a mutant YPT1 allele (Schmitt et al. (1988) Cell 53:635-47). The yeast mutant cell line ypt1^ts contains an allele of YPT1 that has two point mutations: one that changes an asparagine at position 121 to a isoleucine (N121I) and another that changes an alanine at position 161 to a valine (A161V). The N121I mutation causes dominant lethality by itself, but lethality is suppressed by the second mutation, resulting in a recessive loss of function phenotype at the restrictive temperatures. ypt1^ts cells grow normally at temperatures up to 25° C., but are growth arrested at 37° C. (Id.).
Compounds that rescue cells from alpha-synuclein toxicity were screened to assess their ability to restore growth of ypt1^ts cells. The effect of the compounds was measured on ypt1^ts cells cultured at room temperature (permissive temperature), 37° C. (non-permissive temperature), and 35° C. (semi-permissive temperature).
To determine if the test compounds could rescue the ypt1^ts mutant phenotype, ypt1^ts cells were grown overnight in synthetic complete (SC) media supplementd with 2% glucose at room temperature. Log phase cells were diluted into SC 2% glucose media to an OD600 of 0.003. 100 μL of this culture was then aliquoted into each well of 96-well flat bottom microtiter plates. 1 μL of the test compounds dissolved in DMSO (at a concentration range from 5 mM-0.005 mM) or of DMSO alone was added to each well (50 uM-0.05 uM final concentration in 1% DMSO). Plates were mixed by vortexing and incubated at 35° C. and 37° C. Compound rescue of the ypt1^ts temperature sensitive defect was assessed by measuring the OD600 (optical density at 600 nm; cell growth) of the cultures. Plates incubated at 35° C. were measured at 24 and 40 hours incubation time while plates grown at 37° C. were measured after 40 hours of incubation.
Assays monitoring the rescue of ypt1^ts mutants were performed using a vehicle, a positive control (calcium), active compounds obtained from the alpha-synuclein screen (Cpd. I.1 and Cpd. II.1), alpha-synuclein-active analogs of Cpd. […] I.1 (Cpd. I.4 and Cpd. I.5).

Compound	rescue of the ypt1^ts mutant phenotype
O=C1CC(c2cccc(Cl)c2)c2cc3c(cc2N1)CCC3 (stereo not drawn) [Cpd. II.3]	rescued

Same assay, conditions: 35° C. and 37° C.

Compound	rescue of ypt1^ts loss of function / restoring growth of ypt1^ts
CCC(=O)/N=C(\N)Nc1nc2ccccc2s1 [Cpd. I.1]	rescue
N=C(NC(=O)[C@H]1C[C@@H]1c1ccccc1)Nc1nc2ccccc2o1 [Cpd. I.2]	rescued
N/C(=N\C(=O)C1CCCCC1)Nc1nc2ccccc2o1 [Cpd. I.4]	did not
N=C(NC(=O)[C@@H]1C[C@@H]1c1ccccc1)Nc1nc2ccccc2o1 [Cpd. I.5]	did not
O=C1CC(c2ccccc2)c2ccc3ccccc3c2N1 (stereo not drawn) [Cpd. II.1]	rescue
[Ca+2] [calcium, reference compound]	rescued
C[C@@H]1C[C@@H]([C@H](O)CC2CC(=O)NC(=O)C2)C(=O)[C@@H](C)C1 [cycloheximide, reference compound]	effective
COc1cccc2c1C(=O)c1c(O)c3c(c(O)c1C2=O)C[C@@](O)(C(=O)CO)C[C@@H]3O[C@H]1C[C@H](N)[C@H](O)[C@H](C)O1 [doxorubicin, reference compound]	effective
CO[C@@H]1[C@@H](OC(N)=O)[C@@H](O)[C@H](Oc2ccc3c(O)c(NC(=O)c4ccc(O)c(CC=C(C)C)c4)c(=O)oc3c2C)OC1(C)C [novobiocin, reference compound]	effective
aureobasidin [reference compound]	effective
tunicamycin [reference compound]	effective

Same assay, conditions: 37° C., 40 hours, range 0.05-50 μM; intermediate concentrations

Compound	rescue of ypt1^ts loss of function
CC(C)C[C@@H](C=O)NC(=O)[C@H](CC(C)C)NC(=O)[C@H](CC(C)C)NC(=O)OCc1ccccc1 [MG132, reference compound] (Cbz-Leu-Leu-Leu-aldehyde)	rescued

Each compound was assayed on ΔF508 CFTR (assay: ΔF508 CFTR stabilization in CFBE cells, western blot). Settings: 10 μM, 16 hours, 37° C.
Assay type: cell-based
Procedure: Selected compounds identified in the ypt1^ts screen were further tested for their ability to stabilize ΔF508 CTFR. CFBE cells, a cell line generated by transformation of cystic fibrosis tracheo-bronchial cells (ΔF508 CTFR homozygous) with SV40 (Bruscia et al. (2002) Gene Ther. 9(11):683-685), were cultured with 10 μM Cpd. I.3, 10 μM Cpd. II.2, or 10 μM VRT-325 for 16 hours at 37° C. (VRT-325 is described in, e.g., Van Goor et al. (2006) Am. J. Physiol. Lung Cell Mol. Physiol. 290:L1117-L1130). A population of cells was also cultured with the dimethyl sulfoxide (DMSO) solvent as a control.
Following incubation, cells were lysed, solubilized in Laemmli buffer, and subjected to SDS-PAGE. CFTR protein was visualized by western blotting using an antibody specific for CFTR. Culturing CFBE cells with Cpd. I.3 or Cpd. II.2 increased the amount of cellular ΔF508 CFTR protein (see band “B,” FIG. 3A). Cpd. I.3 and Cpd. […] The effects of Cpd. I.3 or Cpd.
Next, to test the effect of different concentrations of Cpd. I.3 and Cpd. II.2 on ΔF508 CFTR, a dose response experiment was performed. CFBE cells were grown at 37° C. for 16 hours in the presence of 1, 2.5, 5, or 10 μM Cpd. I.3 or Cpd. II.2. Following incubation, lysates were prepared from the various treated cell populations, the lysates solubilized in Laemmli buffer, and subjected to SDS-PAGE. The relative amounts of glysosylated (band “C”) and unglycosylated (band “B”) ΔF508 CFTR protein were visualized by western blotting as above (FIGS. 4A and 4C). The band intensities were quantitated by scanning and densitometry. […] I.3 (FIG. 4B) and Cpd. II.2 (FIG. 4D), respectively.

Compound	effects on stabilizing ΔF508 CFTR compared with VRT-325	stabilization of ΔF508 CFTR protein in CFBE cells
O=C1CC(c2cccc(Cl)c2)c2ccc3c(c2N1)CCC3 (stereo not drawn) [Cpd. II.2]	comparable or better	–
COc1ccc(S(=O)(=O)N2CCN(C(C)c3nc(OC4CCCCC4)c4ccccc4n3)CC2)cc1 (stereo not drawn) [VRT-325, reference compound]	–	stabilization

Same assay, conditions: 10 μM, 16 hours, 37° C., vs DMSO

Compound	amount of cellular ΔF508 CFTR protein (band B)	amount of the glycosylated form of ΔF508 CFTR (band C)
O=C1CC(c2cccc(Cl)c2)c2ccc3c(c2N1)CCC3 (stereo not drawn) [Cpd. II.2]	increased	increased

Same assay, conditions: 16 hours, 37° C.

Compound	concentration at which efficacy reached a maximum (dose response curves from western blot) [µM]
O=C1CC(c2cccc(Cl)c2)c2ccc3c(c2N1)CCC3 (stereo not drawn) [Cpd. II.2]	2.5 to 5

Same assay, conditions: all concentrations tested (1-10 μM), 16 hours, 37° C.

Compound	amount of glycosylated and unglycosylated ΔF508 CFTR proteins compared to absence of compound
O=C1CC(c2cccc(Cl)c2)c2ccc3c(c2N1)CCC3 (stereo not drawn) [Cpd. II.2]	increase

The compounds below were run on sar1^ts mutant yeast strain (assay: sar1^ts mutant growth rescue assay (OD600)). Settings: 35° C., 72 hours, 0.05 to 50 μM.
Assay type: cell-based
Procedure: The sar1st mutant yeast strain (ATCC, Manassas, Va.) carries a temperature sensitive mutant allele of the SAR1 gene, which permits the strain to grow at 25° C., but undergo growth arrest at 35° C. or higher. Inactivation of the mutant Sar1^ts protein at 35° C. prevents the formation of transport vesicles at the ER, causing a block in ER to golgi trafficking (Saito et al. (1998) J. Biochem. (Tokyo) 124(4):816-823).
To identify compounds that rescue the sar1^ts mutant phenotype, the mutant strain was first grown at 25° C. in rich media overnight. The strain was then diluted to an OD600 of 0.004 in SC media with 2% glucose, and mixed with various dilutions of test compounds (0.05 to 50 μM) in SC media with 2% glucose. The cells were then incubated at 25° C. or 35° C. for 72 hours. Rescue of the sar1^ts mutant phenotype was scored as an increase in the OD600 (concentration of the yeast cells) cultured in the presence of a test compound as compared to cells cultured cultured in the absence of the test compound.

Compound	rescue of the sar1^ts mutant phenotype
CCC(=O)/N=C(\N)Nc1nc2ccccc2s1 [Cpd. I.1]	rescue
N=C(NC(=O)[C@@H]1C[C@@H]1c1ccccc1)Nc1nc2ccccc2o1 [Cpd. I.5]	rescue
N/C(=N\C(=O)CCc1ccco1)Nc1nc2ccccc2o1 [Cpd. I.6]	rescue
O=C1CC(c2ccccc2)c2ccc3ccccc3c2N1 (stereo not drawn) [Cpd. II.1]	not detected
O=C1CC(c2cccc(Cl)c2)c2ccc3c(c2N1)CCC3 (stereo not drawn) [Cpd. II.2]	not detected
COc1ccc(OC)c(C2CC(=O)Nc3c2ccc2ccccc32)c1 (stereo not drawn) [II.12]	not detected
O=C1CC(c2cccc(Cl)c2)c2ccc(-c3ccccc3)cc2N1 (stereo not drawn) [II.27]	not detected
O=C1CC(c2cccc(Cl)c2)c2cc3c4c(cccc4c2N1)CC3 (stereo not drawn) [II.57]	not detected
C#Cc1cccc(C2CC(=O)Nc3c2ccc2c3CCC2)c1 (stereo not drawn) [II.59]	not detected
C[C@@H]1C[C@@H]([C@H](O)CC2CC(=O)NC(=O)C2)C(=O)[C@@H](C)C1 [cycloheximide, reference compound]	rescue
COc1cccc2c1C(=O)c1c(O)c3c(c(O)c1C2=O)C[C@@](O)(C(=O)CO)C[C@@H]3O[C@H]1C[C@H](N)[C@H](O)[C@H](C)O1 [doxorubicin, reference compound]	not detected
aureobasidin [reference compound]	not detected

The compounds below were run on sec23-2^ts mutant yeast strain (assay: sec23^ts mutant growth rescue assay (OD600)). Settings: 30° C., 24 hours, 0.05 to 50 μM.
Assay type: cell-based
Procedure: The sec23-2^ts mutant yeast strain carries a temperature sensitive mutant allele of the SEC23 gene, which permits the strain to grow normally at 25° C., but undergo growth arrest at 30° C. or higher. Inactivation of the Sec23 temperature-sensitive mutant protein at the restrictive temperature prevents the formation of transport vesicles at the ER resulting in a block in ER to golgi trafficking (see, e.g., Hicke et al. (1989) EMBO J. 8(6):1677-1684 and Castillo-Flores et al. (2005) J. Biol. Chem. 280(40):34033-34041).
To identify compounds that rescue the sec23^ts mutant phenotype, the mutant strain was first grown at 25° C. in rich media overnight. The strain was then diluted to an OD600 of 0.004 in SC media with 2% glucose, and mixed with various dilutions of test compounds compounds compounds (0.05 to 50 μM) in SC media with 2% glucose. The cells were then incubated at 25° C. or 30° C. for 24 hours. Rescue of the sec23^ts mutant phenotype was scored as an increase in the OD600 of cells cultured in the presence of the a compound as compared to cells cultured in the absence of the test compound.

Compound	rescue of the sec23^ts mutant phenotype
CCC(=O)/N=C(\N)Nc1nc2ccccc2s1 [Cpd. I.1]	rescue
N=C(NC(=O)[C@@H]1C[C@@H]1c1ccccc1)Nc1nc2ccccc2o1 [Cpd. I.5]	not detected
N/C(=N\C(=O)CCc1ccco1)Nc1nc2ccccc2o1 [Cpd. I.6]	not detected
O=C1CC(c2ccccc2)c2ccc3ccccc3c2N1 (stereo not drawn) [Cpd. II.1]	not detected
O=C1CC(c2cccc(Cl)c2)c2ccc3c(c2N1)CCC3 (stereo not drawn) [Cpd. II.2]	not detected
COc1ccc(OC)c(C2CC(=O)Nc3c2ccc2ccccc32)c1 (stereo not drawn) [II.12]	not detected
O=C1CC(c2cccc(Cl)c2)c2ccc(-c3ccccc3)cc2N1 (stereo not drawn) [II.27]	not detected
O=C1CC(c2cccc(Cl)c2)c2cc3c4c(cccc4c2N1)CC3 (stereo not drawn) [II.57]	not detected
C#Cc1cccc(C2CC(=O)Nc3c2ccc2c3CCC2)c1 (stereo not drawn) [II.59]	not detected
C[C@@H]1C[C@@H]([C@H](O)CC2CC(=O)NC(=O)C2)C(=O)[C@@H](C)C1 [cycloheximide, reference compound]	not detected
COc1cccc2c1C(=O)c1c(O)c3c(c(O)c1C2=O)C[C@@](O)(C(=O)CO)C[C@@H]3O[C@H]1C[C@H](N)[C@H](O)[C@H](C)O1 [doxorubicin, reference compound]	not detected
aureobasidin [reference compound]	not detected

The compounds below were run on alpha-synuclein toxicity (assay: alpha-synuclein screen (rescue of cells from alpha-synuclein toxicity)). Settings: not given.
Assay type: cell-based

Compound	activity in the alpha-synuclein screen
CCC(=O)/N=C(\N)Nc1nc2ccccc2s1 [Cpd. I.1]	active
N=C(NC(=O)[C@H]1C[C@@H]1c1ccccc1)Nc1nc2ccccc2o1 [Cpd. I.2]	active
N/C(=N\C(=O)C1CCCCC1)Nc1nc2ccccc2o1 [Cpd. I.4]	inactive
N=C(NC(=O)[C@@H]1C[C@@H]1c1ccccc1)Nc1nc2ccccc2o1 [Cpd. I.5]	inactive
O=C1CC(c2ccccc2)c2ccc3ccccc3c2N1 (stereo not drawn) [Cpd. II.1]	active
